Assay type in all cases: cell-based
Series [1] has as its system Chlamydomonas reinhardtii cells. Put plainly: Microscopy of treated cells (organelles, lipid droplets). The following applies: FIG. 1. The protocol:
(§1) The screening library included 43,736 compounds (ChemBridge, Corp). […] A sub-set of compounds were retested using an 8-point dose response assay (0.25-30 μM). Compounds were further assessed visually using a Nikon Ti-inverted microscope (60×) to reconfirm lipid droplet accumulation was induced.

Series [2] has the same test system. Put plainly: Lipid accumulation using lipophilic dye Nile Red. Particulars: for lipid accumulation: 0.5 μM to 15.0 μM, FIG. 3; for lipid accumulation over 72 hours: 30 μM test compound, FIG. 4. As for the experimental part:
[…] At the indicated times 200 μL cells were removed from each well and optical density and nile red fluorescence were measured.
Lipid accumulation over a period of 72 hours was also measured (30 μM test compound) using lipophilic dye Nile Red, as shown in FIG. 4. […] FIGS. 12A-12C show representative images of C. reinhardtii cultures that were treated with 10 μM of representative test compounds of Formula Ia, Formula IIa, and Formula IIIa. The corresponding lipid accumulation was visualized using confocal microscopy after 72 hours in culture.

The test system is the same in series [3]. The experiment in a line: Fatty acid assay. The following applies: 30 μM, FIG. 5.
The test system is the same in series [4]. The experiment in a line: Triglyceride assay. The following applies: 5 μM, FIG. 6.
Series [5] has the same test system. Put plainly: Cellular chlorophyll and carotenoid levels. The following applies: 30 μM, FIG. 7.
The test system is the same in series [6]. Put plainly: Levels of proteins required for photosynthesis. The following applies: Rubisco large and small sub unit, PSa D, PSb A, phosphoribulokinase, histone; FIG. 8.
The test system is the same in series [7]. The experiment in a line: Cellular carbohydrate levels. Particulars: 30 μM, FIG. 9.
Series [8] has the same test system. The experiment in a line: Total protein levels in cells. The following applies: FIG. 10.
For series [9], the system named is Chlamydomonas reinhardtii CC125. The experiment in a line: Lipid accumulation in algal cells. The following applies: 0.63 μM to 50 μM, FIG. 11A-11C. The protocol:
(§2) Compounds 1, 62, and 136 were assayed in algal species Chlamydomonas reinhardtii CC125, Chlorella sorokiniana UTEX 1230, Chlorella vulgaris UTEX 395, and Tetrachlorella alterns UTEX 2453 at concentrations ranging from 0.63 μM to 50 μM.

Series [10] concerns Chlorella sorokiniana UTEX 1230. The experiment in a line: Lipid accumulation in algal cells. The following applies: 0.63 μM to 50 μM, FIG. 11A-11C. The protocol: as §2
Series [11] deals with Chlorella vulgaris UTEX 395. The experiment in a line: Lipid accumulation in algal cells. The following applies: 0.63 μM to 50 μM, FIG. 11A-11C. As for the experimental part: as §2
Series [12] concerns Tetrachlorella alterns UTEX 2453. Put plainly: Lipid accumulation in algal cells. The following applies: 0.63 μM to 50 μM, FIG. 11A-11C. As for the experimental part:
as §2

The test system of series [13] is Chlamydomonas reinhardtii. Put plainly: 8-point dose response assay (0.25-30 μM). More on the design: reference not given here. Particulars: for Dose Response Assay 0.25 μM: 0.25 μM compound; for Dose Response Assay 0.625 μM: 0.625 μM compound; for Dose Response Assay 2.5 μM: 2.5 μM compound; for Dose Response Assay 5 μM: 5 μM compound; for Dose Response Assay 10 μM: 10 μM compound; for Dose Response Assay 15 μM: 15 μM compound; for Dose Response Assay 30 μM: 30 μM compound. The protocol: A large scale in vivo high throughput screen (HTS) was performed to identify small compounds that stimulate lipid production and accumulation using the model organism Chlamydomonas reinhardtii. The HTS employed a 384-well microplate format in which cells were allowed to grow in the presence of the test compounds at 10 μM final concentration for 72 hours.
as §1

The mark [14] stands for this setting: 8-point dose response, Nile Red lipid accumulation.
Setting [15] is: 1.25 μM compound, 8-point dose response, Nile Red lipid accumulation.

The results in this text go back to US10351883B2, “Compounds for increasing lipid synthesis and storage” (NUtech Ventures, priority 2015, dated 2019).

Where two headings read alike, the source gives them in different places.

As for `COc1ccc(CCN(C)Cc2ccc([N+](=O)[O-])cc2)cc1OC` [Compound 1, 2-(3,4-dimethoxyphenyl)-N-methyl-N-(4-nitrobenzyl)ethan-1-amine], the “disruption of major organelles including nucleus, endoplasmic reticulum, and chloroplast” value in series [1] is recorded as “does not disrupt major organelles”. For the same molecule, the lipid accumulation result was “increased lipid accumulation” in series [2]; “stimulated lipid accumulation” in [9]; “stimulated lipid accumulation” in series [10]; “stimulated lipid accumulation” in [11]; “stimulated lipid accumulation” in series [12]. The “lipid accumulation over 72 hours” value in series [2] is “increased lipid accumulation”. For the same molecule, in series [3], the fatty acid levels result is on record as “increased fatty acid levels”. The triacylglyercol levels entry in [4] is reported as “increased triacylglyercol levels”. Also, the carotenoid levels entry in series [5] is “did not significantly alter”. The “levels of chlorophyll A (Chl A)” value in series [5] is recorded as “did not significantly alter”. The “levels of chlorophyll B (Chl B)” value in series [5] is recorded as “did not significantly alter”. Also, in [6], the “levels of proteins required for photosynthesis” value is recorded as “did not significantly affect”. Moreover, in [7], the carbohydrate levels result is recorded as “increased carbohydrate levels”. In [8], the total protein levels entry is listed as “None of the test compounds significantly affected”.

As to `CN(CCC#N)C12CC3CC(CC(C3)C1)C2` [Compound 136, 3-(adamantan-1-yl(methyl)amino)propanenitrile], the “disruption of major organelles including nucleus, endoplasmic reticulum, and chloroplast” value in series [1] is recorded as “does not disrupt major organelles”. In addition, the lipid accumulation entry in [2] is listed as “increased lipid accumulation”; in series [9], “stimulated lipid accumulation”; in series [10], “stimulated lipid accumulation”; in [11] it was “stimulated lipid accumulation”; in [12] it was “stimulated lipid accumulation”. Moreover, the “lipid accumulation over 72 hours” value in series [2] was “increased lipid accumulation”. Further, the fatty acid levels result in [3] is listed as “increased fatty acid levels”. Further, the triacylglyercol levels entry in series [4] is on record as “increased triacylglyercol levels”. For the same molecule, the carotenoid levels entry in series [5] is on record as “did not significantly alter”. Further, in [5], the “levels of chlorophyll A (Chl A)” value is given as “did not significantly alter”. Moreover, the “levels of chlorophyll B (Chl B)” value in [5] is “did not significantly alter”. Also, the “levels of proteins required for photosynthesis” value in series [6] was “did not significantly affect”. Further, in series [7], the carbohydrate levels result was “increased carbohydrate levels”. Besides, the total protein levels result in series [8] is on record as “None of the test compounds significantly affected”.

In the case of `Cc1ccsc1C=C(C#N)c1nc(-c2ccc([N+](=O)[O-])cc2)cs1` [Compound 30], in series [13] (setting [14]), the “Dose Response Assay 0.25 μM” value worked out at 1.15, the “Dose Response Assay 0.625 μM” value was 1.05, the “Dose Response Assay 2.5 μM” value amounted to 0.84 and the “Dose Response Assay 5 μM” value came to 0.99. In [13] (setting [14]), the “Dose Response Assay 10 μM” value is recorded as 0.82, the “Dose Response Assay 15 μM” value is given as 1.37 and the “Dose Response Assay 30 μM” value is reported as 1.73. Further, in series [13] (setting [15]), the “Dose Response Assay 1.25 μM” value is on record as 1.16.

With `CCOc1c(Cl)cc(C(=O)Nc2cccc([N+](=O)[O-])c2)cc1Cl` [Compound 61], in series [13] (setting [14]), the “Dose Response Assay 0.25 μM” value came out at 0.90, the “Dose Response Assay 0.625 μM” value is listed as 0.96, the “Dose Response Assay 2.5 μM” value is 0.95 and the “Dose Response Assay 5 μM” value is recorded as 1.04. In addition, in series [13] (setting [14]), the “Dose Response Assay 10 μM” value is reported as 0.91, the “Dose Response Assay 15 μM” value is 1.24 and the “Dose Response Assay 30 μM” value stood at 1.14. For the same molecule, the “Dose Response Assay 1.25 μM” value in series [13] (setting [15]) was determined as 0.92.

Regarding `COc1cccc(CN2CCN(C(=O)c3cc(OC)c(OC)c(OC)c3)CC2)c1OC` [Compound 101], the “Dose Response Assay 1.25 μM” value in [13] stood at 1.14. For the same molecule, in [13] (setting [14]), the “Dose Response Assay 0.25 μM” value is listed as 1.03, the “Dose Response Assay 0.625 μM” value is on record as 1.08, the “Dose Response Assay 2.5 μM” value is on record as 0.88 and the “Dose Response Assay 5 μM” value was found to be 1.58. For the same molecule, in [13] (setting [14]), the “Dose Response Assay 10 μM” value is recorded as 1.04, the “Dose Response Assay 15 μM” value was found to be 1.43 and the “Dose Response Assay 30 μM” value is recorded as 1.75.

As to `CC(=O)NC1=C(N2CCN(Cc3ccccc3)CC2)C(=O)c2ccccc2C1=O` [Compound 134], in [13], the “Dose Response Assay 1.25 μM” value was 0.93. In series [13] (setting [14]), the “Dose Response Assay 0.25 μM” value is listed as 0.97, the “Dose Response Assay 0.625 μM” value is given as 1.06, the “Dose Response Assay 2.5 μM” value is 1.32 and the “Dose Response Assay 5 μM” value turned out to be 1.77. Moreover, in series [13] (setting [14]), the “Dose Response Assay 10 μM” value was determined as 1.31, the “Dose Response Assay 15 μM” value is recorded as 1.97 and the “Dose Response Assay 30 μM” value turned out to be 2.14.

In the case of `O=[N+]([O-])c1ccccc1CN1CCN(CC2CC3C=CC2C3)CC1` (stereo not drawn) [Compound 124], in [13], the “Dose Response Assay 1.25 μM” value worked out at 0.99. Further, the “Dose Response Assay 10 μM” value in series [13] (setting [14]) amounted to 0.88.

`Cc1cc(C)c(NC(=O)COc2ccccc2[N+](=O)[O-])c(C)c1` [Compound 35]: in series [13] (setting [14]), the “Dose Response Assay 0.25 μM” value is given as 1.09, the “Dose Response Assay 0.625 μM” value was found to be 1.49, the “Dose Response Assay 2.5 μM” value amounted to 1.96 and the “Dose Response Assay 5 μM” value came out at 1.91. Further, in [13] (setting [14]), the “Dose Response Assay 10 μM” value was found to be 2.65, the “Dose Response Assay 15 μM” value was found to be 2.5 and the “Dose Response Assay 30 μM” value is 2.51. Moreover, the “Dose Response Assay 1.25 μM” value in series [13] (setting [15]) is on record as 1.23.

Turning to `CC(=O)c1nc2cc([N+](=O)[O-])ccc2n1Cc1ccccc1` [Compound 23], in series [13] (setting [14]), the “Dose Response Assay 0.25 μM” value is reported as 1.02, the “Dose Response Assay 0.625 μM” value amounted to 1, the “Dose Response Assay 2.5 μM” value is given as 0.78 and the “Dose Response Assay 5 μM” value is 1.04. Moreover, in [13] (setting [14]), the “Dose Response Assay 10 μM” value was 1.1, the “Dose Response Assay 15 μM” value stood at 1.43 and the “Dose Response Assay 30 μM” value came out at 1.15. Moreover, in series [13] (setting [15]), the “Dose Response Assay 1.25 μM” value was 0.79.

On to `CCN1CCN(Cc2ccc(N(CC)CC)cc2)CC1` [Compound 104], for which, in [13], the “Dose Response Assay 1.25 μM” value amounted to 3.96. Moreover, in [13] (setting [14]), the “Dose Response Assay 0.25 μM” value is 1.23, the “Dose Response Assay 0.625 μM” value came to 3.68, the “Dose Response Assay 2.5 μM” value worked out at 5.27 and the “Dose Response Assay 5 μM” value is given as 4.04. Besides, in [13] (setting [14]), the “Dose Response Assay 10 μM” value is on record as 2.81, the “Dose Response Assay 15 μM” value is 3.28 and the “Dose Response Assay 30 μM” value was determined as 3.69.

With `Cc1ccc(C(=O)Nc2ccccc2C(=O)NC(C)C)cc1[N+](=O)[O-]` [Compound 54], in series [13] (setting [14]), the “Dose Response Assay 0.25 μM” value is 1.05, the “Dose Response Assay 0.625 μM” value was 1.53, the “Dose Response Assay 2.5 μM” value is given as 2.32 and the “Dose Response Assay 5 μM” value was determined as 2.79. Further, in series [13] (setting [14]), the “Dose Response Assay 10 μM” value is on record as 1.73, the “Dose Response Assay 15 μM” value was 1.78 and the “Dose Response Assay 30 μM” value is listed as 1.58. Moreover, the “Dose Response Assay 1.25 μM” value in series [13] (setting [15]) was 2.13.
